Reference: patent US20070134753A1, “Assay for determining the activity of fatty acid amide hydrolase” (priority 2002, published 2007)
“And” between values parts separate entries of the source, which are not always exact repeats. Equal entries are not always repeated. Where two headings read alike, the source gives them in different places.

Experiments:
human FAAH = molecular target: T1, human FAAH (Homo sapiens, UniProt O00519); experiment: FAAH charcoal filter-plate assay with 3H-anandamide in T84 membranes; type: biochemical; conditions: for IC50 values (in words): product inhibition
T1 construct: T84 frozen pellets were homogenized in FAAH assay buffer; endogenous in cells; host or cells: T84 human colorectal carcinoma cells (ATCC CCL-248), homogenate/membranes
T1 sequence (O00519 1-579): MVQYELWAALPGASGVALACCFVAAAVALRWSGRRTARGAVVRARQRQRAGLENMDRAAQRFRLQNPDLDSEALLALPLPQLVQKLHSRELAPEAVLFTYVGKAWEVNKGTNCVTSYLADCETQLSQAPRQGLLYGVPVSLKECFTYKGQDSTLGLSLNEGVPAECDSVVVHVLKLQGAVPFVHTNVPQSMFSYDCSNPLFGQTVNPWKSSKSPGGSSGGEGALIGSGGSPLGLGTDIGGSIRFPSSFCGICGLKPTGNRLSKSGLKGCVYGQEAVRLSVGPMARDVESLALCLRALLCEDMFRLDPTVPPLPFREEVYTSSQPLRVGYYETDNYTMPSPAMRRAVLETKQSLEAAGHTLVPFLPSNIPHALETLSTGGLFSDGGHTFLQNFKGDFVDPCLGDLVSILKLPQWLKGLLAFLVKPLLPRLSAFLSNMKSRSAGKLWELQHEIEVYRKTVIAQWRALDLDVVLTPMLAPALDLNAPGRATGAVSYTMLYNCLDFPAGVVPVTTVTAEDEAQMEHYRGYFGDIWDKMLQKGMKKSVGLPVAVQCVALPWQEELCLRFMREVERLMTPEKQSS

FAAH [1] = molecular target: T2, FAAH (Rattus norvegicus, UniProt P97612); set-up: other: literature data; conditions: read-out: Literature (ref) IC50; cited from earlier work
T2 sequence (P97612 1-579): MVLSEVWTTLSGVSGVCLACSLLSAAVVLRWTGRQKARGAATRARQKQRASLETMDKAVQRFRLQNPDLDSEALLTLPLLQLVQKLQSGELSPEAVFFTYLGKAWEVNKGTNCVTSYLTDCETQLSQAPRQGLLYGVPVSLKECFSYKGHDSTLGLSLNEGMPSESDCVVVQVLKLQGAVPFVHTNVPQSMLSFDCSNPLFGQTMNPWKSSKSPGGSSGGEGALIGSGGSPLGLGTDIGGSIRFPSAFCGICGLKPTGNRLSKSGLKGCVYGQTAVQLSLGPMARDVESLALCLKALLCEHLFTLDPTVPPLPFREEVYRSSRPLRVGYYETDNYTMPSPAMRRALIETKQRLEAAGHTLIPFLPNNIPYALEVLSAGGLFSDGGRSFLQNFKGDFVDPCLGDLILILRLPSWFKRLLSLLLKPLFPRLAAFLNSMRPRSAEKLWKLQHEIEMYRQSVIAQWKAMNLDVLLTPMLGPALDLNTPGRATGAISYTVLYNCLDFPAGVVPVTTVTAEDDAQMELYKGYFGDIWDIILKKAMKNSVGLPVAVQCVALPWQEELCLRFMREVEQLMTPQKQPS

FAAH [2] = molecular target: T3, FAAH (Mus musculus, UniProt O08914); conditions: cited from earlier work
T3 construct: it abolished anandamide hydrolysis in N18 mouse neuroblastoma cells; host or cells: N18 mouse neuroblastoma cells
T3 sequence (O08914 1-579): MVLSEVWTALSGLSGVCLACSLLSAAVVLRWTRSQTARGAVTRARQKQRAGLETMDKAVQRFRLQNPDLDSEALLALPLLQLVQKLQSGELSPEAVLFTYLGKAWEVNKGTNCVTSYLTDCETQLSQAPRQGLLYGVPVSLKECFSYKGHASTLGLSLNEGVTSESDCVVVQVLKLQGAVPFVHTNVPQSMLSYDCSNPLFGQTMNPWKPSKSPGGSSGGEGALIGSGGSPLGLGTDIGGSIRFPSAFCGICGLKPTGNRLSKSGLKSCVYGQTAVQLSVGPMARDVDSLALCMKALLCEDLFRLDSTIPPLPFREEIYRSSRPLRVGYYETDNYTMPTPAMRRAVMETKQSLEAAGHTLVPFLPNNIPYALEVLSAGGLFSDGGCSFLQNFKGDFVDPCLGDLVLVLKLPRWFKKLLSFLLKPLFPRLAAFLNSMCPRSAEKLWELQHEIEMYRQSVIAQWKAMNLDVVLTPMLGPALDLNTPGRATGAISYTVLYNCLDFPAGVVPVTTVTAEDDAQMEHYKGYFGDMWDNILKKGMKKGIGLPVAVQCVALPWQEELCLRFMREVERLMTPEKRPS

FAAH [3] = molecular target: T2, FAAH; conditions: cited from earlier work
FAAH [4] = molecular target: FAAH (Homo sapiens, UniProt O00519); conditions: human brain; Maccarrone et al. 1999; cited from earlier work
[5] = T84 membranes, room temperature 60 min, average ± S.E. of 2-5 experiments, each in triplicate, read-out: IC50

Structure (SMILES): CCCCC/C=C\C/C=C\C/C=C\C/C=C\CCCC(=O)O [Arachidonic acid]
- IC50 values (in words) (human FAAH; T84 membranes): low micromolar range
- IC50 (human FAAH; [5]): 931 ± 255 nM

Structure (SMILES): CCCCCCCC/C=C\CCCCCCCC(=O)O [Oleic acid]
- IC50 values (in words) (human FAAH; T84 membranes): low micromolar range
- IC50 (human FAAH; [5]): 1940 ± 401 nM

Structure (SMILES): CCCCCCCC/C=C\CCCCCCCCC(=O)C(F)(F)F [Oleyl trifluoromethyl ketone, oleyl trifluoromethyl ketone]
- IC50 (FAAH [1]): 39 nM and 24 to 41 nM

Structure (SMILES): O=S(=O)(F)Cc1ccccc1 [Phenylmethylsulfonyl fluoride]
- anandamide hydrolysis in N18 mouse neuroblastoma cells (FAAH [2]; at a concentration of 100 μM, Maurelli et al. 1995): abolished
- IC50 (FAAH [1]): 1200 to 69000 nM
- inhibition of the hydrolysis of rat brain microsomal anandamide (FAAH [3]; at 25 μM, Desarnaud et al. 1995): 48%
- IC50 (human FAAH; IC50): 16000 nM

Structure (SMILES): CCCCC/C=C\C/C=C\C/C=C\C/C=C\CCCC(=O)NCCO [anandamide, N-arachidonoylethanolamine]
- Km (FAAH [2]): 9 µM
- activity of FAAH (FAAH [2]): abolished
- Km (FAAH [3]): 12.7 µM
- Km (human FAAH; read-out: Km of hydrolysis by FAAH): 1.1 ± 0.17 µM
- Km (FAAH [4]): 2 µM
